Results: publication PMC11359702, “Synthesis and Biochemical Evaluation of Ethanoanthracenes and Related Compounds: Antiproliferative and Pro-Apoptotic Effects in Chronic Lymphocytic Leukemia (CLL)” (Pharmaceuticals, 2024)
Read-outs that look alike come from different tables or passages of the source.

Assays:
Type in all cases: cell-based, human
786-0 = experiment: NCI-60 five-dose assay
Description: (§1) A number of our most promising compounds identified through preliminary cell viability testing (23c, 23d, 23f, 23h, 23l, 23m, 23n, 23o, 24f, 24l, 25n and 26n) were selected for NCI drug screening in the 60-cell-line panel. The panel includes nine subcategories based on cancer tissue types, which include leukemia, ovarian, central nervous system, breast, lung, prostate, skin, renal and colon cancer. The compounds were initially assessed in a one-dose assay at a fixed treatment concentration of 10 µM. The compounds selected for further investigation were progressed to a five-dose assay across the concentration ranges of 0.01, 0.1, 1, 10 and 100 µM [72]. The endpoints assessed in the screening protocol were GI50, TGI and LC50 [72].

A498 = experiment: NCI-60 five-dose assay
Description: as §1

A549/ATCC = experiment: NCI-60 five-dose assay
Description: as §1

ACHN = experiment: NCI-60 five-dose assay
Description: as §1

BT-549 = experiment: NCI-60 five-dose assay
Description: as §1

CAKI-1 = experiment: NCI-60 five-dose assay
Description: as §1

COLO205 = experiment: NCI-60 five-dose assay
Description: as §1

DU-145 = experiment: NCI-60 five-dose assay
Description: as §1

EKVX = experiment: NCI-60 five-dose assay
Description: as §1

HCT-116 = experiment: NCI-60 five-dose assay
Description: as §1

HCT-15 = experiment: NCI-60 five-dose assay
Description: as §1

HCT-2998 = experiment: NCI-60 five-dose assay
Description: as §1

HOP-62 = experiment: NCI-60 five-dose assay
Description: as §1

HOP-92 = experiment: NCI-60 five-dose assay
Description: as §1

HS 578T = experiment: NCI-60 five-dose assay
Description: as §1

IGROV1 = experiment: NCI-60 five-dose assay
Description: as §1

KM12 = experiment: NCI-60 five-dose assay
Description: as §1

LOX IMV1 = experiment: NCI-60 five-dose assay
Description: as §1

M14 = experiment: NCI-60 five-dose assay
Description: as §1

MALME-3M = experiment: NCI-60 five-dose assay
Description: as §1

MCF-7 = experiment: NCI-60 five-dose assay
Description: as §1

MDA-MB-231/ATCC = experiment: NCI-60 five-dose assay
Description: as §1

MDA-MB-435 = experiment: NCI-60 five-dose assay
Description: as §1

MDA-MB-468 = experiment: NCI-60 five-dose assay
Description: as §1

NCI-H226 = experiment: NCI-60 five-dose assay
Description: as §1

NCI-H23 = experiment: NCI-60 five-dose assay
Description: as §1

NCI-H332M = experiment: NCI-60 five-dose assay
Description: as §1

NCI-H460 = experiment: NCI-60 five-dose assay
Description: as §1

NCI-H552 = experiment: NCI-60 five-dose assay
Description: as §1

NCI/ADR-RES = experiment: NCI-60 five-dose assay
Description: as §1

OVCAR-3 = experiment: NCI-60 five-dose assay
Description: as §1

OVCAR-4 = experiment: NCI-60 five-dose assay
Description: as §1

OVCAR-5 = experiment: NCI-60 five-dose assay
Description: as §1

OVCAR-8 = experiment: NCI-60 five-dose assay
Description: as §1

PC-3 = experiment: NCI-60 five-dose assay
Description: as §1

RXF 393 = experiment: NCI-60 five-dose assay
Description: as §1

SF-268 = experiment: NCI-60 five-dose assay
Description: as §1

SF539 = experiment: NCI-60 five-dose assay
Description: as §1

SK-MEL-28 = experiment: NCI-60 five-dose assay
Description: as §1

SK-MEL-2 = experiment: NCI-60 five-dose assay
Description: as §1

SK-OV-3 = experiment: NCI-60 five-dose assay
Description: as §1

SN12C = experiment: NCI-60 five-dose assay
Description: as §1

SNB-19 = experiment: NCI-60 five-dose assay
Description: as §1

SW-620 = experiment: NCI-60 five-dose assay
Description: as §1

TK-10 = experiment: NCI-60 five-dose assay
Description: as §1

U251 = experiment: NCI-60 five-dose assay
Description: as §1

UACC-257 = experiment: NCI-60 five-dose assay
Description: as §1

UACC-62 = experiment: NCI-60 five-dose assay
Description: as §1

UO-31 = experiment: NCI-60 five-dose assay
Description: as §1

breast cancer cell lines = experiment: NCI-60 five-dose assay, breast cancer cell lines; details: range over breast cancer cell lines
Description: as §1

## O=C(/C=C/C12c3ccccc3C(c3ccccc31)C1C(=O)NC(=O)C12)c1ccc(Cl)cc1 (racemic) [Compound 23l, (E)-9-(3-(4-Chlorophenyl)-3-oxoprop-1-en-1-yl)-9,10-dihydro-9,10-[3,4]epipyrroloanthracene-12,14-dione]
786-0
  GI50: 1.73 µM
A498
  GI50: 1.28 µM
A549/ATCC
  GI50: 2.4 µM
ACHN
  GI50: 1.65 µM
BT-549
  GI50: 1.34 µM
CAKI-1
  GI50: 1.24 µM
COLO205
  GI50: 1.91 µM
DU-145
  GI50: 1.67 µM
EKVX
  GI50: 1.43 µM
HCT-116
  GI50: 1.23 µM
HCT-15
  GI50: 1.47 µM
HCT-2998
  GI50: 1.69 µM
HOP-62
  GI50: 1.69 µM
HOP-92
  GI50: 1.32 µM
HS 578T
  GI50: 1.94 µM
IGROV1
  GI50: 1.67 µM
KM12
  GI50: 2.14 µM
LOX IMV1
  GI50: 1.6 µM
M14
  GI50: 1.65 µM
MALME-3M; MALME-3M
  GI50: 1.51 µM
MCF-7
  GI50: 1.34 µM
MDA-MB-231/ATCC
  GI50: 1.88 µM
MDA-MB-435
  GI50: 1.68 µM
MDA-MB-468
  GI50: 1.7 µM
NCI-H226
  GI50: 1.92 µM
NCI-H23
  GI50: 1.78 µM
NCI-H332M
  GI50: 1.42 µM
NCI-H460
  GI50: 1.8 µM
NCI-H552
  GI50: 1.46 µM
NCI/ADR-RES
  GI50: 1.77 µM
OVCAR-3
  GI50: 1.63 µM
OVCAR-4
  GI50: 1.42 µM
OVCAR-5
  GI50: 1.58 µM
OVCAR-8
  GI50: 1.13 µM
PC-3
  GI50: 1.39 µM
RXF 393
  GI50: 1.2 µM
SF-268
  GI50: 1.99 µM
SF539
  GI50: 1.51 µM
SK-MEL-28
  GI50: 1.8 µM
SK-MEL-2
  GI50: 1.81 µM
SK-OV-3
  GI50: 1.85 µM
SN12C
  GI50: 1.56 µM
SNB-19
  GI50: 1.58 µM
SW-620
  GI50: 1.89 µM
TK-10
  GI50: 1.92 µM
U251
  GI50: 1.52 µM
UACC-257
  GI50: 1.56 µM
UACC-62
  GI50: 1.4 µM
UO-31
  GI50: 1.28 µM
Breast cancer cell lines
  GI50: 1.34 to 1.94 µM

## O=C(/C=C/C12c3ccccc3C(c3ccccc31)C1C(=O)NC(=O)C12)c1ccc(F)cc1 (racemic) [Compound 23h]
786-0; Homo sapiens
  GI50: 2.44 µM
A498; Homo sapiens
  GI50: 1.16 µM
A549/ATCC; Homo sapiens
  GI50: 2.37 µM
ACHN; Homo sapiens
  GI50: 1.39 µM
BT-549; Homo sapiens
  GI50: 1.37 µM
CAKI-1; Homo sapiens
  GI50: 1.02 µM
COLO205; Homo sapiens, COLO 205
  GI50: 1.79 µM
DU-145; Homo sapiens
  GI50: 1.77 µM
EKVX; Homo sapiens
  GI50: 1.85 µM
HCT-116; Homo sapiens
  GI50: 0.537 µM
HCT-15; Homo sapiens
  GI50: 1.19 µM
HCT-2998; Homo sapiens
  GI50: 1.7 µM
HOP-62; Homo sapiens
  GI50: 2.45 µM
HOP-92; Homo sapiens
  GI50: 1.33 µM
HS 578T; Homo sapiens
  GI50: 1.82 µM
IGROV1; Homo sapiens, IGROV-1
  GI50: 2.1 µM
KM12; Homo sapiens
  GI50: 2.18 µM
LOX IMV1; Homo sapiens
  GI50: 1.65 µM
M14; Homo sapiens
  GI50: 2.14 µM
MALME-3M; Homo sapiens, Malme-3M
  GI50: 1.6 µM
MCF-7; Homo sapiens, MCF7
  GI50: 0.885 µM
MDA-MB-231/ATCC; Homo sapiens
  GI50: 1.64 µM
MDA-MB-435; Homo sapiens
  GI50: 1.93 µM
MDA-MB-468; Homo sapiens
  GI50: 1.88 µM
NCI-H226; Homo sapiens
  GI50: 2.04 µM
NCI-H23; Homo sapiens
  GI50: 2.61 µM
NCI-H332M; Homo sapiens
  GI50: 2.64 µM
NCI-H460; Homo sapiens
  GI50: 1.64 µM
NCI-H552; Homo sapiens
  GI50: 1.74 µM
NCI/ADR-RES; Homo sapiens
  GI50: 2.16 µM
OVCAR-3; Homo sapiens
  GI50: 1.44 µM
OVCAR-4; Homo sapiens
  GI50: 1.96 µM
OVCAR-5; Homo sapiens
  GI50: 1.6 µM
OVCAR-8; Homo sapiens
  GI50: 1.43 µM
PC-3; Homo sapiens
  GI50: 1.42 µM
RXF 393; Homo sapiens
  GI50: 1.27 µM
SF-268; Homo sapiens
  GI50: 4.56 µM
SF539; Homo sapiens, SF-539
  GI50: 1.69 µM
SK-MEL-28; Homo sapiens
  GI50: 1.98 µM
SK-MEL-2; Homo sapiens
  GI50: 2.48 µM
SK-OV-3; Homo sapiens
  GI50: 5.28 µM
SN12C; Homo sapiens
  GI50: 2.34 µM
SNB-19; Homo sapiens
  GI50: 2.68 µM
SW-620; Homo sapiens
  GI50: 2.27 µM
TK-10; Homo sapiens
  GI50: 3.18 µM
U251; Homo sapiens, U-251
  GI50: 1.84 µM
UACC-257; Homo sapiens
  GI50: 2.13 µM
UACC-62; Homo sapiens
  GI50: 1.66 µM
UO-31; Homo sapiens
  GI50: 1.12 µM
Breast cancer cell lines; Homo sapiens
  GI50: 0.885 to 1.88 µM

## O=C(C=CC12c3ccccc3C(c3ccccc31)C1C(=O)N(c3ccc(Cl)cc3)C(=O)C12)c1ccccn1 (stereo not drawn) [Compound 25n, (E)-13-(4-Chlorophenyl)-9-(3-oxo-3-(pyridin-2-yl)prop-1-en-1-yl)-9,10-dihydro-9,10-[3,4]epipyrroloanthracene-12,14-dione]
786-0; Homo sapiens
  GI50: 0.216 µM
A498; Homo sapiens
  GI50: 0.539 µM
A549/ATCC; Homo sapiens
  GI50: 0.39 µM
ACHN; Homo sapiens
  GI50: 0.299 µM
BT-549; Homo sapiens
  GI50: 0.295 µM
CAKI-1; Homo sapiens
  GI50: 1.07 µM
COLO205; Homo sapiens, COLO 205
  GI50: 1.16 µM
DU-145; Homo sapiens
  GI50: 0.41 µM
EKVX; Homo sapiens
  GI50: 0.491 µM
HCT-116; Homo sapiens
  GI50: 0.212 µM
HCT-15; Homo sapiens
  GI50: 0.213 µM
HCT-2998; Homo sapiens
  GI50: 0.335 µM
HOP-62; Homo sapiens
  GI50: 0.587 µM
HOP-92; Homo sapiens
  GI50: 1.19 µM
HS 578T; Homo sapiens
  GI50: 0.458 µM
IGROV1; Homo sapiens, IGROV-1
  GI50: 0.236 µM
KM12; Homo sapiens
  GI50: 0.344 µM
LOX IMV1; Homo sapiens
  GI50: 0.194 µM
M14; Homo sapiens
  GI50: 0.344 µM
MALME-3M; Homo sapiens, Malme-3M
  GI50: 0.316 µM
MCF-7; Homo sapiens, MCF7
  GI50: 0.326 µM
MDA-MB-231/ATCC; Homo sapiens
  GI50: 0.463 µM
MDA-MB-435; Homo sapiens
  GI50: 0.298 µM
MDA-MB-468; Homo sapiens
  GI50: 0.627 µM
NCI-H226; Homo sapiens
  GI50: 0.293 µM
NCI-H23; Homo sapiens
  GI50: 0.446 µM
NCI-H332M; Homo sapiens
  GI50: 0.821 µM
NCI-H460; Homo sapiens
  GI50: 0.241 µM
NCI-H552; Homo sapiens
  GI50: 0.331 µM
NCI/ADR-RES; Homo sapiens
  GI50: 0.356 µM
OVCAR-3; Homo sapiens
  GI50: 0.222 µM
OVCAR-4; Homo sapiens
  GI50: 0.764 µM
OVCAR-5; Homo sapiens
  GI50: 0.568 µM
OVCAR-8; Homo sapiens
  GI50: 0.409 µM
PC-3; Homo sapiens
  GI50: 0.436 µM
RXF 393; Homo sapiens
  GI50: 0.222 µM
SF-268; Homo sapiens
  GI50: 0.699 µM
SF539; Homo sapiens, SF-539
  GI50: 0.316 µM
SK-MEL-28; Homo sapiens
  GI50: 0.455 µM
SK-MEL-2; Homo sapiens
  GI50: 0.67 µM
SK-OV-3; Homo sapiens
  GI50: 3.3 µM
SN12C; Homo sapiens
  GI50: 0.415 µM
SNB-19; Homo sapiens
  GI50: 0.425 µM
SW-620; Homo sapiens
  GI50: 0.299 µM
TK-10; Homo sapiens
  GI50: 1.46 µM
U251; Homo sapiens, U-251
  GI50: 0.358 µM
UACC-257; Homo sapiens
  GI50: 0.496 µM
UACC-62; Homo sapiens
  GI50: 0.4 µM
UO-31; Homo sapiens
  GI50: 0.208 µM
Breast cancer cell lines; Homo sapiens
  GI50: 0.295 to 0.627 µM
